One compound from patent US5559150A, “N,N-disulfonylated aminobenzene carboxlic acids and the use thereof as thrombin inhibitors” (3-Dimensional Pharmaceuticals, Inc., priority 1995, dated 1996) can be followed below.

The IC50 is the concentration needed to halve the response being measured. The low end stands for higher potency, the high end for lower potency.

Test [1] deals with T1, Purified human α-thrombin (Homo sapiens, UniProt P00734).
T1 construct: Purified human α-thrombin; purchased Enzyme Research Laboratories Inc
Briefly: In vitro inhibition of purified thrombin (hydrolysis of peptide p-nitroanilide substrate). The format is biochemical. As for the experimental part: (§1) All assays are based on the ability of the test compound to inhibit the hydrolysis of a peptide p-nitroanilide substrate. In a typical experiment, substrate is prepared in DMSO, and diluted into an assay buffer consisting of 50 mM HEPES, 130 mM NaCl, pH 7.5. The final concentration for each of the substrates is listed below. All substrate concentrations are at least 10-fold lower than Km to insure inhibition is competitive. Test compounds are prepared as a 1 mg/ml solution in DMSO, and 3 additional 10-fold dilutions in DMSO are prepared. Enzyme solutions are prepared at the concentrations listed below in assay buffer.
(§2) In a typical IC50 determination, into each well of a 96 well plate is pipetted 280 uL of substrate solution, 10 μL of inhibitor solution, and the plate allowed to thermally equilibrate at 37° C. in a Molecular Devices Plate Reader for >10 minutes. Reactions were initiated by the addition of a 20 μL aliquot of enzyme, and the absorbance increase at 405 nm is recorded for 15 minutes. Data corresponding to less than 10% of the total substrate hydrolysis was used in the calculations. The ratio of the velocity (rate of the change in absorbance as a function of time) for a sample containing no inhibitor is divided by the velocity of a sample containing inhibitor, and is plotted as a function of inhibitor concentration. […]

For another test, the target named is T2, Factor Xa (Homo sapiens, UniProt P00742).
T2 construct: purchased Enzyme Research Laboratories Inc
Briefly: In vitro inhibition of purified Factor Xa (hydrolysis of peptide p-nitroanilide substrate). It is filed as biochemical. Conditions: Bz-Ile-Glu-Gly-Arg-pNa substrate; 10 nM Factor Xa; pH 7.5, 37° C. As for the experimental part:
as §1
as §2, with “Data corresponding to less than 10% of the total substrate hydrolysis was used in the calculations.” left out
Factor Xa activity was assessed as the ability to hydrolyse the substrate Bz-Ile-Glu-Gly-Arg-pNa (obtained from Sigma Chemical Company, St Louis, Mo.). […]

T2 sequence (P00742 235-488 limits assumed): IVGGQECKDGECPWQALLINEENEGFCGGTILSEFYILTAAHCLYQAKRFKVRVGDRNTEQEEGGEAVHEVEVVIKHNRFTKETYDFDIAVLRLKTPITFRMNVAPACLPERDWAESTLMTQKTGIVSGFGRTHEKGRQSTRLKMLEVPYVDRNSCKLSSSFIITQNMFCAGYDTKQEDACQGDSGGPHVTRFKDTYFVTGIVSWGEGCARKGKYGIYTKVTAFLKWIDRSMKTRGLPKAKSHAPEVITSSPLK
T2 sequence (P00742 41-179 partner limits assumed): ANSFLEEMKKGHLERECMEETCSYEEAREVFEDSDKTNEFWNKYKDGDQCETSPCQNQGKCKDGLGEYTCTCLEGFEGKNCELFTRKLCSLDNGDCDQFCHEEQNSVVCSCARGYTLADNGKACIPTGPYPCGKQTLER

As to `O=C(O)c1cccc(N(S(=O)(=O)c2ccc3ccccc3c2)S(=O)(=O)c2ccc3ccccc3c2)c1` [Example 4, 3-[Bis[(2-naphthalenyl)sulfonyl]amino]benzoic Acid], the IC50 in test [1] (Bz-Phe-Val-Arg-pNa substrate, 36 nM thrombin, pH 7.5, 37° C.) was found to be 0.8 µM; against Factor Xa, 59 µM. Further, the “inhibition of thrombin, potency and selectivity (in words)” value in test [1] (conclusion from Table 1, selectivity versus other serine proteases such as plasmin) was “selective and highly potent inhibitors of thrombin”.
